Source: US20160310621A1, “IMAGING PROBES, FORMULATIONS, AND USES THEREOF” (priority 2015, published 2016)
Entries after “also recorded” stand apart in the source; their conditions may differ.

Test system: rat model of arthritis (bone uptake)
Assay: PET imaging in rat HKMT/IFA model of arthritis
Format: in vivo
Excerpt: Single modality BP imaging probes with ^18F were generated according to the Schemes described in FIGS. 6A-6B and FIG. 7. […] A rat (Lewis rats, 6-12 weeks of age) model of arthritis was generated by subcutaneous injection of heat killed Mycobacterium tuberculosis (strain H37Ra) suspended in incomplete Freund's adjuvant (HKMT/IFA). […] The swelling was easily identifiable by day 16 post injection, but undetectable in the animals on day 7 (FIGS. 12A-12D).
Rats were given a total of about 500 μCi (about 0.5 nmole) of freshly prepared ^18F-RIS-SFB (single modality BP conjugated imaging probe) by i.v. injection. PET imaging was conducted using a GE eXplore Vista small animal PET system.

For `[18F-].[Na+]` [Na^18F], the “time at which increased accumulation in bone is seen by PET” value (RA model rats, post induction) was roughly 18 days and the “detection of early bone involvement in RA by PET” value (early time point (day 7), before clinical signs) was “fails to detect the earliest signs of bone involvement in RA; also recorded: does not detect the early bone involvement in RA at day 7”.
